According to ChEMBL document CHEMBL1156792, “Application of the dipeptidyl peptidase IV (DPPIV/CD26) based prodrug approach to different amine-containing drugs” (J Med Chem, 2010):
Peptide text beside a SMILES is read from it. * marks the point of attachment. X2 = OC[C@H]1O[C@@H](n2cnc3c(N*)ncnc32)[C@@H](O)[C@@H]1O

These molecules were tested against Dipeptidyl peptidase 4 (Homo sapiens) (UniProt P27487) (assay: Ratio of Vmax/Km for human recombinant CD26 assessed as hydrolysis).
Sequence of Dipeptidyl peptidase 4 (Homo sapiens) (P27487 whole entry, looked up): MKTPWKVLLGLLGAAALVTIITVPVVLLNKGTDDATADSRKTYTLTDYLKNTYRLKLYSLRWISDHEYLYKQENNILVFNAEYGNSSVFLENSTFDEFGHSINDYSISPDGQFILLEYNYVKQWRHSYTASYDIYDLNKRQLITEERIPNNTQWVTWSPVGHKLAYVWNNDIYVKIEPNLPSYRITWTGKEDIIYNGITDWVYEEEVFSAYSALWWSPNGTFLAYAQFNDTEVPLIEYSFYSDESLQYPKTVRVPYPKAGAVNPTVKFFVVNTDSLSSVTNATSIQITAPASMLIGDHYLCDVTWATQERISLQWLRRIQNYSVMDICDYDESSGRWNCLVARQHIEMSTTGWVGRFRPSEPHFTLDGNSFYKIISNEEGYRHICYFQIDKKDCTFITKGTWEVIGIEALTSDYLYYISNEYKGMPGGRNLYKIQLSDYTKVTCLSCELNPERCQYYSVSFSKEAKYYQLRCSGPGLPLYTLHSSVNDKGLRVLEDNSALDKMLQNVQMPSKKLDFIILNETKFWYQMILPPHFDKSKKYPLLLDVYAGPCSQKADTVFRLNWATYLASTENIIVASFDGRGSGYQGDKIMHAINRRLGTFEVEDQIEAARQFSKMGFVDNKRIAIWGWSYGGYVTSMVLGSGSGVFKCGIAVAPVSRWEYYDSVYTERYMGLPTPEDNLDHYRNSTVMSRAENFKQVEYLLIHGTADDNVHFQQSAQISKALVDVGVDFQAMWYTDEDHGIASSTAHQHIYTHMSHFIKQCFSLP

| Compound | Vmax/Km |
| --- | --- |
| COc1cccc2c1C(=O)c1c(O)c3c(c(O)c1C2=O)C[C@@](O)(C(=O)CO)C[C@@H]3O[C@H]1C[C@H](NC(=O)[C@@H]2CCCN2C(=O)[C@@H](N)C(C)C)[C@H](O)[C@H](C)O1 | 0.5 |
| CC(C)[C@H](N)C(=O)N1CCC[C@H]1C(=O)Nc1ccc2ncccc2c1 | 1.3 |
| N[C@@H](CC(=O)O)C(=O)N1CCC[C@H]1C(=O)Nc1ccc2ncccc2c1 | 0.13 |
| CC(C)[C@H](N)C(=O)N1CCC[C@H]1C(=O)N[C@H](C(=O)N1CCC[C@H]1C(=O)Nc1ncnc2c1ncn2[C@@H]1O[C@H](CO)[C@@H](O)[C@@H]1O)C(C)C (H-VPVP-X2) | 0.18 |
